Assay results reported in publication PMC8699473, “An Easily Expandable Multi-Drug LC-MS Assay for the Simultaneous Quantification of 57 Oral Antitumor Drugs in Human Plasma” (Cancers, 2021).

Assay: Short-term stability in spiked pooled human plasma (bench-top, 4 °C, 56 °C)

Row | SMILES | Short-time stability (1h, 56°C) Accuracy [%] (validation standard 2xLLOV) | Short-time stability (24h, 4°C, without daylight) Accuracy [%] (validation standard 2xLLOV) | Short-time stability (24h, RT, without daylight) Accuracy [%] (validation standard 2xLLOV) | Short-time stability (1h, 56°C) Accuracy [%] (validation standard LLOV) | Short-time stability (24h, 4°C, without daylight) Accuracy [%] (validation standard LLOV) | Short-time stability (24h, RT, without daylight) Accuracy [%] (validation standard LLOV) | Short-time stability (1h, 56°C) Accuracy [%] (validation standard MOV) | Short-time stability (24h, 4°C, without daylight) Accuracy [%] (validation standard MOV) | Short-time stability (24h, RT, without daylight) Accuracy [%] (validation standard MOV) | Short-time stability (1h, 56°C) Accuracy [%] (validation standard ULOV) | Short-time stability (24h, 4°C, without daylight) Accuracy [%] (validation standard ULOV) | Short-time stability (24h, RT, without daylight) Accuracy [%] (validation standard ULOV) | Short-time stability (24h, RT, with daylight) Accuracy [%] (validation standard 2xLLOV) | Short-time stability (24h, RT, with daylight) Accuracy [%] (validation standard LLOV) | Short-time stability (24h, RT, with daylight) Accuracy [%] (validation standard MOV) | Short-time stability (24h, RT, with daylight) Accuracy [%] (validation standard ULOV)
1 | C#Cc1cccc(Nc2ncnc3cc(OCCOC)c(OCCOC)cc23)c1 [Erlotinib] | 61.0% | 100.7% | 95.3% | 69.2% | 110.4% | 107.4% | 52.1% | 98.0% | 97.9% | 45.8% | 98.7% | 101.0% | – | – | – | –
2 | O=C(c1ccc(F)c(F)c1Nc1ccc(I)cc1F)N1CC(O)([C@@H]2CCCCN2)C1 [Cobimetinib] | 51.4% | 100.9% | 98.8% | 42.7% | 99.9% | 99.8% | 47.6% | 102.5% | 103.8% | 41.3% | 97.5% | 100.3% | 98.3% | 98.6% | 102.4% | 103.8%
3 | CNC(=O)c1cc(Oc2ccc(NC(=O)Nc3ccc(Cl)c(C(F)(F)F)c3)cc2)ccn1 [Sorafenib] | 38.6% | 97.0% | 81.9% | 28.2% | 96.0% | 72.1% | 38.4% | 98.2% | 91.9% | 34.6% | 92.5% | 89.2% | 85.6% | 83.4% | 89.2% | 91.0%
4 | CCCS(=O)(=O)Nc1ccc(F)c(C(=O)c2c[nH]c3ncc(-c4ccc(Cl)cc4)cc23)c1F [Vemurafenib] | 41.6% | 93.0% | 85.9% | 34.3% | 90.0% | 82.9% | 39.7% | 100.4% | 92.1% | 34.6% | 93.8% | 88.2% | 92.7% | 93.0% | 89.3% | 91.3%
5 | N#CC[C@H](C1CCCC1)n1cc(-c2ncnc3[nH]ccc23)cn1 [Ruxolitinib] | 63.9% | 97.6% | 102.0% | 63.3% | 102.2% | 105.0% | 60.9% | 100.3% | 102.2% | 53.0% | 95.9% | 101.3% | 101.6% | 100.4% | 100.6% | 102.3%
6 | C[C@]12CC[C@H](O)CC1=CC[C@@H]1[C@@H]2CC[C@]2(C)C(c3cccnc3)=CC[C@@H]12 [Abiraterone] | 46.5% | 96.9% | 101.5% | 49.9% | 104.6% | 105.2% | 40.7% | 97.4% | 101.1% | 34.9% | 95.4% | 102.0% | 101.7% | 105.6% | 103.1% | 103.3%
7 | CN(C)C(=O)c1cc2cnc(Nc3ccc(N4CCNCC4)cn3)nc2n1C1CCCC1 [Ribociclib] | 49.7% | 98.0% | 92.7% | 30.6% | 87.3% | 81.3% | 50.5% | 98.8% | 93.5% | 41.5% | 84.9% | 83.3% | 94.2% | 79.3% | 95.0% | 84.8%
8 | Cc1c(C(=O)Nc2ccc(N3C[C@@H](C)O[C@@H](C)C3)nc2)cccc1-c1ccc(OC(F)(F)F)cc1 [Sonidegib] | 47.0% | 99.1% | 91.1% | 38.1% | 96.4% | 86.1% | 44.9% | 98.4% | 94.7% | 40.1% | 96.7% | 91.4% | 95.7% | 96.2% | 92.2% | 92.9%
9 | CS(=O)(=O)CCNCc1ccc(-c2ccc3ncnc(Nc4ccc(OCc5cccc(F)c5)c(Cl)c4)c3c2)o1 [Lapatinib] | 19.2% | 96.4% | 53.0% | -24.8% | 92.5% | 14.4% | 46.1% | 97.9% | 109.4% | 42.5% | 94.3% | 112.4% | 46.9% | 5.2% | 93.5% | 100.7%
10 | CCN(CC)CCNC(=O)c1c(C)[nH]c(/C=C2\C(=O)Nc3ccc(F)cc32)c1C [Sunitinib] | 54.5% | 105.9% | 83.9% | 65.8% | 111.2% | 98.2% | 44.2% | 101.2% | 86.7% | 40.6% | 106.4% | 93.8% | 79.8% | 93.0% | 83.0% | 93.1%
11 | C[C@@H](Oc1cc(-c2cnn(C3CCNCC3)c2)cnc1N)c1c(Cl)ccc(F)c1Cl [Crizotinib] | – | – | 92.4% | – | – | 71.2% | – | – | 99.8% | – | – | 89.5% | 85.9% | 62.9% | 95.3% | 85.2%
12 | O=C1CCC(N2C(=O)c3ccccc3C2=O)C(=O)N1 (stereo not shown) [Thalidomide] | – | 64.9% | – | – | 69.3% | – | – | 60.7% | – | – | 55.2% | 1.7% | – | – | – | 1.7%
13 | Nc1cccc2c1C(=O)N(C1CCC(=O)NC1=O)C2=O (stereo not shown) [Pomalidomide] | 21.3% | 94.1% | 51.3% | 38.4% | 92.5% | 42.6% | 20.6% | 96.7% | 51.2% | 16.9% | 88.6% | 43.8% | 51.2% | 42.4% | 51.3% | 43.6%
14 | COc1cc2ncnc(Nc3ccc(F)c(Cl)c3)c2cc1NC(=O)/C=C/CN1CCCCC1 [Dacomitinib] | 30.6% | 94.9% | 88.5% | 10.3% | 90.8% | 72.7% | 37.3% | 97.9% | 91.1% | 33.3% | 92.4% | 89.1% | 86.7% | 74.6% | 89.8% | 85.6%
